Reference: article PMC7168327, “Designed Antimicrobial Peptides for Topical Treatment of Antibiotic Resistant Acne Vulgaris” (Antibiotics, 2020)
In brackets after ≈: the same amount, converted by molar mass. Square brackets hold non-standard residues; d marks the D form. Peptide text beside a SMILES is read from it. Orn = NCCC[C@H](N)C(=O)O

Legend:
C. acnes HL072PA1 [1] = conditions: cited from earlier work
Excerpt: (§1) Table 1 Growth Inhibition of dAMPs (MICs, µg/mL) against C. acnes Isolates. | column: Antibiotic Sensitivity / Tetra ^#; Antibiotic Sensitivity / Ery ^#; Antibiotic Sensitivity / Clind ^#

C. acnes HL082PA2 [2] = conditions: cited from earlier work
Excerpt: as §1

C. acnes HL056PA1 [3] = conditions: cited from earlier work
Excerpt: as §1

C. acnes HL013PA1 [4] = conditions: cited from earlier work
Excerpt: as §1

C. acnes HL007PA1 [5] = conditions: cited from earlier work
Excerpt: as §1

C. acnes HL045PA1 [6] = conditions: cited from earlier work
Excerpt: as §1

C. acnes ATCC6919 [7] = conditions: cited from earlier work
Excerpt: as §1

C. acnes HL038PA1 [8] = conditions: cited from earlier work
Excerpt: as §1

C. acnes HL043PA2 [9] = conditions: cited from earlier work
Excerpt: as §1

C. acnes ATCC11827 [10] = conditions: cited from earlier work
Excerpt: as §1

C. acnes HL043PA1 [11] = conditions: cited from earlier work
Excerpt: as §1

C. acnes HL053PA1 [12] = conditions: cited from earlier work
Excerpt: as §1

[13] = tested on: bioluminescent human immortalized keratinocytes (HaCaT); assay: Mammalian cytotoxicity, bioluminescent human keratinocytes; format: cell-based; conditions: 8 h
Method: (§2) Noninvasive and real-time monitoring of mammalian cytotoxicity to assess the potential skin toxicity of the dAMPs was evaluated using bioluminescent human immortalized keratinocytes (HaCaT, AddexBio, San Diego, CA, USA). The bioluminescent variant of HaCaT was constructed by transfection with a luciferase gene (RediFect Red-Fluc-Puromycin, Cat# CL596002). Keratinocytes (1 × 10^4 cells, 100 μL) were plated in 96-well black-walled plates. The candidate dAMPs were 2-fold serially diluted from 1024 µg/mL in growth medium supplemented with 150 µg/mL D-luciferin. Each concentration was performed in triplicate, with the final volume being 200 μL. Imaging was performed at select times (0, 15, and 30 min and 1, 3, 5, and 8 h) after the addition of the dAMP, and compared to concurrently run vehicle-control, using an IVIS Lumina imaging system (Caliper Life Sciences, Inc., Hopkinton, MA, USA). For imaging, the 96-well plate was positioned on the stage (12.5-cm field of view), with an open emission filter, binning of 4, and f-stop 1 and a 1-min exposure time. Data analysis was performed using the Living Image software program (version 4.3, Caliper Life Sciences, Inc.). The dAMP concentrations required to kill 10% and 50% of keratinocytes were determined using GraphPad Prism 7 (GraphPad Software, San Diego, CA, USA).

[14] = tested on: C. acnes HL043PA2 compared to human keratinocytes; format: cell-based; conditions: 8 h
Method: In evaluating the clinical utility of each of the candidate dAMPs for C. acnes treatment, the Therapeutic Index was determined. The Therapeutic Index is defined as the ratio of concentration at which the dAMP is active against the prokaryotic C. acnes pathogen without inducing cytotoxic damage to the surrounding mammalian cells. The EC10 and EC50 doses, defined as the concentrations required to kill 10% and 50% respectively of human keratinocytes following 8 h incubation with each of the Riptide dAMPs, are tabulated and graphed in Table 2 and Figure 3, respectively. The larger the Therapeutic Index, the greater the specificity of the dAMP for destroying C. acnes cells.
(§3) Single colonies were inoculated in Reinforced Clostridium Medium (RCM) broth supplemented with sodium thioglycolate and incubated at 37 °C, with shaking at 200 rpm, for 2 or 3 days to reach logarithmic growth (OD600nm = 1.0). Each C. acnes (1 × 10^6 CFU per mL) was incubated with dAMP or clindamycin at two-fold serial dilutions (0.5–32 μg per mL) in RCM on a 96-well microplate for 48 h. Three replicas were included for each test article concentration. Bacterial growth was measured by optical density at 600 nm to determine the MIC for each dAMP applied.
as §2

C. acnes HL072PA1 [15] = format: cell-based, Cutibacterium acnes; conditions: HL072PA1, 48 h
Method: (§4) The ten antibiotic resistant C. acnes clinical isolates were acquired from BEI resources with the two reference strains obtained from American Type Culture Collection (ATCC, Manassas, VA, USA). C. acnes is a relatively slow-growing, typically aerotolerant anaerobic so all in vitro C. acnes experiments were performed under anaerobic conditions.
as §3

C. acnes HL082PA2 [16] = format: cell-based, Cutibacterium acnes; conditions: HL082PA2, 48 h
Method: as §4, §3

C. acnes HL056PA1 [17] = format: cell-based, Cutibacterium acnes; conditions: HL056PA1, 48 h
Method: as §4, §3

C. acnes HL013PA1 [18] = format: cell-based, Cutibacterium acnes; conditions: HL013PA1, 48 h
Method: as §4, §3

C. acnes HL007PA1 [19] = format: cell-based, Cutibacterium acnes; conditions: HL007PA1, 48 h
Method: as §4, §3

C. acnes HL045PA1 [20] = format: cell-based, Cutibacterium acnes; conditions: HL045PA1, 48 h
Method: as §4, §3

C. acnes ATCC6919 [21] = format: cell-based, Cutibacterium acnes; conditions: ATCC6919, 48 h
Method: as §4, §3

C. acnes HL038PA1 [22] = format: cell-based, Cutibacterium acnes; conditions: HL038PA1, 48 h
Method: as §4, §3

C. acnes HL043PA2 [23] = format: cell-based, Cutibacterium acnes; conditions: HL043PA2, 48 h
Method: as §4, §3

[24] = tested on: ten C. acnes clinical isolates and two C. acnes ATCC reference strains; format: cell-based, Cutibacterium acnes; conditions: for in vitro anti-bacterial activity against the C. acnes bacterial strains (in words): 0.5–32 μg/mL concentration range evaluated
Method: as §4, §3

C. acnes ATCC11827 [25] = format: cell-based, Cutibacterium acnes; conditions: ATCC11827, 48 h
Method: as §4, §3

C. acnes HL043PA1 [26] = format: cell-based, Cutibacterium acnes; conditions: HL043PA1, 48 h
Method: as §4, §3

C. acnes HL053PA1 [27] = format: cell-based, Cutibacterium acnes; conditions: HL053PA1, 48 h
Method: as §4, §3

Row | Structure (SMILES) | EC50, concentration required to kill 50% of human keratinocytes [13] | Therapeutic Index (EC50 / MIC) [14] | MIC (C. acnes HL072PA1 [15]) | MIC (C. acnes HL082PA2 [16]) | MIC (C. acnes HL056PA1 [17]) | MIC (C. acnes HL013PA1 [18]) | MIC (C. acnes HL007PA1 [19]) | MIC (C. acnes HL045PA1 [20]) | MIC (C. acnes ATCC6919 [21]) | MIC (C. acnes HL038PA1 [22]) | MIC (C. acnes HL043PA2 [23]) | in vitro anti-bacterial activity against the C. acnes bacterial strains (in words) [24] | MIC (C. acnes ATCC11827 [25]) | MIC (C. acnes HL043PA1 [26]) | MIC (C. acnes HL053PA1 [27]) | further results
1 | CC[C@H]1OC(=O)[C@H](C)[C@@H](O[C@H]2C[C@@](C)(OC)[C@@H](O)[C@H](C)O2)[C@H](C)[C@@H](O[C@@H]2O[C@H](C)C[C@H](N(C)C)[C@H]2O)[C@](C)(O)C[C@@H](C)C(=O)[C@H](C)[C@@H](O)[C@]1(C)O [Ery, erythromycin] |  |  |  |  |  |  |  |  |  |  |  |  |  |  |  | Antibiotic Sensitivity, Ery (C. acnes HL072PA1 [1]): R (erythromycin resistance MIC ≥ 0.5 μg/mL); Antibiotic Sensitivity, Ery (C. acnes HL082PA2 [2]): R (erythromycin resistance MIC ≥ 0.5 μg/mL); Antibiotic Sensitivity, Ery (C. acnes HL056PA1 [3]): R (erythromycin resistance MIC ≥ 0.5 μg/mL); Antibiotic Sensitivity, Ery (C. acnes HL013PA1 [4]): R (erythromycin resistance MIC ≥ 0.5 μg/mL); Antibiotic Sensitivity, Ery (C. acnes HL007PA1 [5]): R (erythromycin resistance MIC ≥ 0.5 μg/mL); Antibiotic Sensitivity, Ery (C. acnes HL045PA1 [6]): R (erythromycin resistance MIC ≥ 0.5 μg/mL); Antibiotic Sensitivity, Ery (C. acnes ATCC6919 [7]): S (S, sensitive); Antibiotic Sensitivity, Ery (C. acnes HL038PA1 [8]): R (erythromycin resistance MIC ≥ 0.5 μg/mL); Antibiotic Sensitivity, Ery (C. acnes HL043PA2 [9]): R (erythromycin resistance MIC ≥ 0.5 μg/mL); Antibiotic Sensitivity, Ery (C. acnes ATCC11827 [10]): S (S, sensitive); Antibiotic Sensitivity, Ery (C. acnes HL043PA1 [11]): R (erythromycin resistance MIC ≥ 0.5 μg/mL); Antibiotic Sensitivity, Ery (C. acnes HL053PA1 [12]): R (erythromycin resistance MIC ≥ 0.5 μg/mL)
2 | CC[C@H](C)[C@H](NC(=O)[C@H](Cc1ccccc1)NC(=O)[C@H](CCCN)NC(=O)[C@H](CCCCN)NC(=O)[C@H](Cc1ccccc1)NC(=O)[C@H](CCCN)NC(=O)[C@H](CCCCN)NC(=O)[C@H](C)NC(=O)[C@H](Cc1ccccc1)NC(=O)[C@H](CCCCN)NC(=O)[C@H](CCCN)NC(=O)[C@@H](NC(=O)[C@@H](N)Cc1ccccc1)[C@@H](C)CC)C(=O)N[C@@H](CCCN)C(=O)N[C@@H](CCCCN)C(=O)N[C@@H](Cc1ccccc1)C(=O)N[C@@H](C)C(=O)N[C@@H](CCCCN)C(=O)N[C@@H](Cc1ccccc1)C(=O)N[C@@H](C)C(=O)N[C@@H](Cc1ccccc1)C(=O)N[C@@H](C)C(=O)N[C@@H](Cc1ccccc1)C(N)=O [RP551] (H-FI[Orn]KFAK[Orn]FK[Orn]FI[Orn]KFAKFAFAF-NH2) | 34.3 µg/mL | 17.2 | 2 to 4 µg/mL | 2 µg/mL (≈ 0.714 µM) | 2 µg/mL (≈ 0.714 µM) | 2 µg/mL (≈ 0.714 µM) | 2 µg/mL (≈ 0.714 µM) | 2 µg/mL (≈ 0.714 µM) | 2 µg/mL (≈ 0.714 µM) | 2 µg/mL (≈ 0.714 µM) | 2 µg/mL (≈ 0.714 µM) | most active | 2 to 4 µg/mL | 2 µg/mL (≈ 0.714 µM) | 2 µg/mL (≈ 0.714 µM) | Therapeutic Index (EC10 / MIC) [14]: 8.3; MIC values against all C. acnes isolates ([24]; ten clinical isolates and two ATCC reference strains, 48 h): 2 to 8 µg/mL
3 | CC[C@H](C)[C@H](NC(=O)[C@H](CCCCN)NC(=O)[C@H](CC(C)C)NC(=O)[C@H](CCCN)NC(=O)[C@H](CC(C)C)NC(=O)[C@H](CCCNC(=N)N)NC(=O)[C@H](C)NC(=O)[C@H](CCCNC(=N)N)NC(=O)[C@@H](NC(=O)[C@H](CCCN)NC(=O)[C@H](Cc1ccccc1)NC(=O)[C@H](CCCNC(=N)N)NC(=O)[C@H](C)NC(=O)[C@H](CCCCN)NC(=O)[C@@H](NC(=O)[C@H](CCCN)NC(=O)[C@@H](N)Cc1ccccc1)[C@@H](C)CC)C(C)C)C(N)=O [RP553] (H-F[Orn]IKARF[Orn]VRARL[Orn]LKI-NH2) | 268 µg/mL | 16.8 | 16 µg/mL (≈ 7.72 µM) | 16 µg/mL (≈ 7.72 µM) | 16 µg/mL (≈ 7.72 µM) | 8 µg/mL (≈ 3.86 µM) | 16 µg/mL (≈ 7.72 µM) | 16 µg/mL (≈ 7.72 µM) | 8 µg/mL (≈ 3.86 µM) | 16 µg/mL (≈ 7.72 µM) | 16 µg/mL (≈ 7.72 µM) | modest anti-bacterial activity | 16 µg/mL (≈ 7.72 µM) | 16 µg/mL (≈ 7.72 µM) | 16 µg/mL (≈ 7.72 µM) | 
